Experimental data: patent publication US9663496B2, “AMPK-activating heterocyclic compounds and methods for using the same” (Rigel Pharmaceuticals, Inc., priority 2010, dated 2017)

Target: AMPK
Assay: AMPK activation, enzyme-linked immunosorbent assay
Format: biochemical
Settings: EC50 for AMPK activation, ELISA
Outline: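 Kit-based immunoassay; compounds screened as activators; standard reagents and protocol.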

SMILES | EC50
O=C(Nc1ccc(-c2ccccc2)cc1)c1ccc(C(=O)N2CCN(Cc3ccc(F)cc3)CC2)cn1 [Compound 11] | < 500 nM
O=C(NC1CCN(Cc2ccc(N3CCCC3)cc2)CC1)c1ccc(C(=O)N2CCC(Oc3ccc(S(=O)(=O)C4CC4)cc3)CC2)nc1 [Compound 248, 6-(4-(4-(cyclopropylsulfonyl)phenoxy)piperidine-1-carbonyl)-N-(1-(4-(pyrrolidin-1-yl)benzyl)piperidin-4-yl)nicotinamide] | < 500 nM
COc1ccc(CN2CCC(NC(=O)c3ccc(C(=O)N4CCN(Cc5ccc(C#N)cc5)CC4)cn3)CC2)cc1 [Compound 285, 5-(4-(4-cyanobenzyl)piperazine-1-carbonyl)-N-(1-(4-methoxybenzyl)piperidin-4-yl)picolinamide] | < 500 nM
O=C(NC1CCN(CC2CCCCC2)CC1)c1ccc(C(=O)N2CCN(Cc3ccc(F)cc3)CC2)cn1 [Compound 13, N-(1-(cyclohexylmethyl)piperidin-4-yl)-5-(4-(4-fluorobenzyl)piperazine-1-carbonyl)picolinamide] | 1000 to 5000 nM
COc1ccc(O[C@H]2CC[C@@H](NC(=O)c3ccc(C(=O)N4CCC(Oc5ccc(C(F)(F)F)cc5)CC4)cn3)CC2)cc1 [Compound 185, N-((cis)-4-(4-methoxyphenoxy)cyclohexyl)-5-(4-(4-(trifluoromethyl)phenoxy)piperidine-1-carbonyl)picolinamide] | < 500 nM
COc1ccc(CN2CCC(NC(=O)c3ccc(C(=O)N4CCC(C(=O)c5ccc(F)cc5F)CC4)nc3)CC2)cc1 [Compound 347, 6-(4-(2,4-difluorobenzoyl)piperidine-1-carbonyl)-N-(1-(4-methoxybenzyl)piperidin-4-yl)nicotinamide] | < 500 nM
N#Cc1ccc(CN2CCC(NC(=O)c3ccc(C(=O)N4CCC(C(=O)c5ccc(-n6cccn6)cc5)CC4)cn3)CC2)cc1 [Compound 375, 5-(4-(4-(1H-pyrazol-1-yl)benzoyl)piperidine-1-carbonyl)-N-(1-(4-cyanobenzyl)piperidin-4-yl)picolinamide] | < 500 nM
COc1ccc(C(=O)C2CCN(C(=O)c3ccc(C(=O)NC4CCN(Cc5ccc(F)cc5)CC4)cn3)CC2)cc1 [Compound 317, N-(1-(4-fluorobenzyl)piperidin-4-yl)-6-(4-(4-methoxybenzoyl)piperidine-1-carbonyl)nicotinamide] | < 500 nM
CS(=O)(=O)c1ccc(C(=O)C2CCN(C(=O)c3ccc(C(=O)N[C@@H]4CCN(Cc5ccc(OC(F)(F)F)cc5)C[C@H]4F)nc3)CC2)cc1 (relative stereo) [Compound 253, N-((trans)-3-fluoro-1-(4-(trifluoromethoxy)benzyl)piperidin-4-yl)-5-(4-(4-(methylsulfonyl)benzoyl)piperidine-1-carbonyl)picolinamide] | 500 to 1000 nM
CS(=O)(=O)c1ccc(OC2CCN(C(=O)c3ccc(C(=O)Nc4ccc(Oc5ccc(F)cc5)nc4)nc3)CC2)cc1 [Compound 231, N-(6-(4-fluorophenoxy)pyridin-3-yl)-5-(4-(4-(methylsulfonyl)phenoxy)piperidine-1-carbonyl)picolinamide] | < 500 nM
O=C(NC1CCN(Cc2ccccc2)CC1)c1ccc(C(=O)NC2CCN(Cc3ccccc3)CC2)nc1 [Compound 264, N2,N5-bis(1-benzylpiperidin-4-yl)pyridine-2,5-dicarboxamide] | 5000 to 10000 nM
N#Cc1ccc(CN2CCC(NC(=O)c3ccc(C(=O)N4CCN(C(=O)c5ccc(C(=O)NC6CCN(Cc7ccc(C#N)cc7)CC6)nc5)CC4)cn3)CC2)cc1 [Compound 75, 5,5′-(piperazine-1,4-diylbis(oxomethylene)) bis(N-(1-(4-cyanobenzyl)piperidin-4-yl)picolinamide)] | 1000 to 5000 nM
O=C(Nc1ccc(Oc2ccc(F)cc2)nc1)c1ccc(C(=O)N2CCC(Oc3ccc(S(=O)(=O)C4CC4)cc3)CC2)nc1 [Compound 247, 6-(4-(4-(cyclopropylsulfonyl)phenoxy)piperidine-1-carbonyl)-N-(6-(4-fluorophenoxy)pyridin-3-yl)nicotinamide] | < 500 nM
COc1ccc(C(=O)C2CCN(C(=O)c3ccc(C(=O)NC4CCN(Cc5ccc(C#N)cc5)CC4)nc3)CC2)cc1 [Compound 129, N-(1-(4-cyanobenzyl)piperidin-4-yl)-5-(4-(4-methoxybenzoyl)piperidine-1-carbonyl)picolinamide] | < 500 nM
O=C(NC1CCN(C(=O)C2CCCCC2)CC1)c1ccc(C(=O)N2CCN(Cc3ccc(F)cc3)CC2)cn1 [Compound 7, N-(1-(cyclohexanecarbonyl)piperidin-4-yl)-5-(4-(4-fluorobenzyl)piperazine-1-carbonyl)picolinamide] | < 500 nM
O=C(Nc1ccc(Oc2ccc(F)cc2)nc1)c1ccc(C(=O)N2CCC(Oc3ccc(F)cc3F)CC2)nc1 [Compound 343, 6-(4-(2,4-difluorophenoxy)piperidine-1-carbonyl)-N-(6-(4-fluorophenoxy)pyridin-3-yl)nicotinamide] | < 500 nM
N#Cc1ccc(CN2CCC(NC(=O)c3ncc(C(=O)N4CCN(Cc5ccc(F)cc5)CC4)cc3C#CCNC(=O)COCCOCCOCCOCCNC(=O)CCCC[C@@H]3SC[C@@H]4NC(=O)N[C@@H]43)CC2)cc1 [Compound 159, N-(1-(4-cyanobenzyl)piperidin-4-yl)-3-(5,20-dioxo-24-((3aS,4S,6aR)-2-oxohexahydro-1H-thieno[3,4-d]imidazol-4-yl)-7,10,13,16-tetraoxa-4,19-diazatetracos-1-ynyl)-5-(4-(4-fluorobenzyl)piperazine-1-carbonyl)picolinamide] | 1000 to 5000 nM
N#Cc1ccc(CN2CCC(NC(=O)c3ccc(C(=O)N4CCN(c5ccc(C(=O)C(F)(F)F)cc5)CC4)cn3)CC2)cc1 [Compound 263, N-(1-(4-cyanobenzyl)piperidin-4-yl)-5-(4-(4-(2,2,2-trifluoroacetyl)phenyl)piperazine-1-carbonyl)picolinamide] | < 500 nM

Other lines, results leading:

EC50 | SMILES
< 500 nM | COc1ccc(C(=O)C2CCN(C(=O)c3ccc(C(=O)N(C)C4CCN(Cc5ccc(OC(F)(F)F)cc5)CC4)cn3)CC2)cc1 [Compound 483, 6-(4-(4-methoxybenzoyl)piperidine-1-carbonyl)-N-methyl-N-(1-(4-(trifluoromethoxy)benzyl)piperidin-4-yl)nicotinamide]
< 500 nM | COc1ccc(CN2CCC(NC(=O)c3ccc(C(=O)N4CCC(C(=O)c5ccc(N6CCCC6)cc5)CC4)nc3)CC2)cc1 [Compound 439, N-(1-(4-methoxybenzyl)piperidin-4-yl)-6-(4-(4-(pyrrolidin-1-yl)benzoyl)piperidine-1-carbonyl)nicotinamide]
500 to 1000 nM | N#Cc1ccc(CN2CCC(NC(=O)c3ccc(C(=O)N4CCC(Oc5cccc(NC(=O)C6CC6)c5)CC4)nc3)CC2)cc1 [Compound 431, N-(1-(4-cyanobenzyl)piperidin-4-yl)-6-(4-(3-(cyclopropanecarboxamido)phenoxy)piperidine-1-carbonyl)nicotinamide]
1000 to 5000 nM | COc1ccc(C(=O)C2CCN(C(=O)c3ccc(C(=O)Nc4ccc(S(=O)(=O)c5ccc(F)cc5)nc4)cn3)CC2)cc1 [Compound 467, N-(6-(4-fluorophenylsulfonyl)pyridin-3-yl)-6-(4-(4-methoxybenzoyl)piperidine-1-carbonyl)nicotinamide]
< 500 nM | O=C(NC1CCN(Cc2cccc(OC(F)(F)F)c2)CC1)c1ccc(C(=O)N2CCC(C(=O)c3ccc(N4CCCC4)cc3)CC2)nc1 [Compound 441, 6-(4-(4-(pyrrolidin-1-yl)benzoyl)piperidine-1-carbonyl)-N-(1-(3-(trifluoromethoxy)benzyl)piperidin-4-yl)nicotinamide]
< 500 nM | CC(=O)c1ccc(Oc2ccc(NC(=O)c3ccc(C(=O)N4CCC(Oc5ccc(C(=O)N(C)C)cc5)CC4)nc3)cn2)cc1 [Compound 488, N-(6-(4-acetylphenoxy)pyridin-3-yl)-6-(4-(4-(dimethylcarbamoyl)phenoxy)piperidine-1-carbonyl)nicotinamide]
< 500 nM | CN1CCN(c2ccc(C(=O)C3CCN(C(=O)c4ccc(C(=O)NC5CCN(Cc6ccc(C#N)cc6)CC5)nc4)CC3)cc2)CC1 [Compound 380, N-(1-(4-cyanobenzyl)piperidin-4-yl)-5-(4-(4-(4-methylpiperazin-1-yl)benzoyl)piperidine-1-carbonyl)picolinamide]
< 500 nM | N#Cc1ccc(CN2CCC(NC(=O)c3ccc(C(=O)N4CCC(Oc5ccc(S(=O)(=O)C(F)(F)F)cc5)CC4)cn3)CC2)cc1 [Compound 415, N-(1-(4-cyanobenzyl)piperidin-4-yl)-5-(4-(4-(trifluoromethylsulfonyl)phenoxy)piperidine-1-carbonyl)picolinamide]
< 500 nM | N#Cc1ccc(O[C@H]2CC[C@@H](NC(=O)c3ccc(C(=O)N4CCC(Oc5cccc(NC(=O)C6CC6)c5)CC4)nc3)CC2)cc1 [Compound 434, N-((cis)-4-(4-cyanophenoxy)cyclohexyl)-6-(4-(3-(cyclopropanecarboxamido)phenoxy)piperidine-1-carbonyl)nicotinamide]
< 500 nM | N#Cc1ccc(CN2CCC(NC(=O)c3ccc(C(=O)N4CCC(C(=O)c5ccc(N6CCOCC6)cc5)CC4)cn3)CC2)cc1 [Compound 376, N-(1-(4-cyanobenzyl)piperidin-4-yl)-5-(4-(4-morpholinobenzoyl)piperidine-1-carbonyl)picolinamide]
< 500 nM | COc1ccc(C(=O)C2CCN(C(=O)c3ccc(C(=O)N[C@H]4CCN(Cc5ccc(C#N)cc5)C[C@@H]4F)cn3)CC2)cc1 [Compound 453, N-((3S,4S)-1-(4-cyanobenzyl)-3-fluoropiperidin-4-yl)-6-(4-(4-methoxybenzoyl)piperidine-1-carbonyl)nicotinamide]
< 500 nM | COc1ccc(OC2CCN(C(=O)c3ccc(C(=O)NC4CCN(Cc5ccc(C#N)cc5)CC4)cn3)CC2)c([N+](=O)[O-])c1 [Compound 378, N-(1-(4-cyanobenzyl)piperidin-4-yl)-6-(4-(4-methoxy-2-nitrophenoxy)piperidine-1-carbonyl)nicotinamide]
< 500 nM | CC(=O)c1ccc(OC2CCN(C(=O)c3ccc(C(=O)Nc4ccc(Oc5ccc(F)cc5)nc4)cn3)CC2)cc1 [Compound 395, 6-(4-(4-acetylphenoxy)piperidine-1-carbonyl)-N-(6-(4-fluorophenoxy)pyridin-3-yl)nicotinamide]
